# “Also recorded” adds a separate entry of the source.
# What was measured:
# [1] = target: T1, CRBN-FLAG (Homo sapiens, UniProt Q96SW2); experiment: In vitro binding assay of purified recombinant protein with thalidomide-immobilized beads
# T1 construct: made in house; host or cells: Sf9 insect cells (Bac-to-bac baculovirus)
# Excerpt: Recombinant CRBN-FLAG and DDB1-V5-His proteins were expressed in the insect Sf9 cells by using the Bac-to-bac baculovirus expression system (Invitrogen) and purified using anti-FLAG M2 agarose beads (Sigma) and Ni-NTA agarose beads (Qiagen), respectively. Purified CRBN-FLAG and/or DDB1-V5-His were mixed with thalidomide-immobilized beads, and the bound proteins were eluted with an SDS sample buffer. For analysis of CRBN-deletion mutant, GST-fused CRBN and its mutants were expressed in E. coli BL21 and purified using glutathione Sepharose (GE Healthcare). CRBN mutants were overexpressed in 293T cells by transfection using Lipofectamine 2000 (Invitrogen). Subsequent binding assays were carried out as described above.
# [2] = test system: zebrafish embryos; experiment: Zebrafish embryo development, pectoral fins and otic vesicles; type: in vivo, zebrafish (Danio rerio)
# Excerpt: To elucidate possible effects of thalidomide on zebrafish development, dechorionated embryos were transferred to media containing various concentrations of thalidomide. […] More specifically, formation of the endoskeletal disc of the pectoral fin was inhibited at 75 hpf (FIG. 4A), and the size of otic vesicles at 30 hpf was reduced (FIG. 4B). Retardation of pectoral fin development was also detected at 48-hpf embryos (FIGS. 5C and D). Recent studies have reported that development of pectoral fins and otic vesicles in teleosts (including zebrafish) shares common molecular mechanisms with the limb and ear development in tetrapods (Cited Literatures 24 to 26).
# Thalidomide was dissolved in DMSO and added to a final concentration of 400 μM to E3 medium prewarmed to […]. Zebrafish embryos were dechorionated prior to thalidomide as follows: At 2 hpf, the embryos were incubated in E3 medium containing 2 mg/ml Protease type XIV (Sigma) for three minutes and then washed five times with the medium. After dechorionation, embryos were immediately transferred to E3 medium containing thalidomide, and observed for three days. The thalidomide-containing medium was exchanged every 12 hours.
# Extracellular matrices associated with chondrocytes were stained with Alcian blue (Cited Literature 40). Zebrafish embryos were fixed in 3.7% neutral buffered formaldehyde for overnight. The next day, the embryos were washed with 100% ethanol and rehydrated with PBS. Subsequently, the embryos were incubated with a solution of 0.05% trypsin in saturated sodium tetraborate for one to three hours. Pigmentation of fish was removed by 3% hydrogen peroxide/1% potassium hydroxide solution. Stained embryos were stored in 70% glycerol-containing PBS solution.
# Microinjection into one-cell stage embryos was carried out in accordance with Cited Literature 39. The present inventors used a nitrogen gas-pressure microinjector (IM 300, Narishige Co., Ltd.) for injection. Capped mRNAs were prepared in vitro using the mMESSAGE mMACHINE in vitro transcription kit (Ambion).
# Zebrafish embryos at 48 hpf were anesthetized with 1% methylcellulose and 0.003% 3-amino benzoic acid ethyl ester (Sigma) and mounted on a slide glass. Then, otic vesicles of ten embryos randomly selected from each sample were photographed. The size was measured using the NIH image J software and compared to that of control. Average sizes and standard errors were calculated, and p-values were determined by the Mann-Whitney U test.
# [3] = test system: fgf8a; experiment: Whole-mount in situ hybridization of zebrafish fin buds; type: in vivo
# Excerpt: (§1) To obtain a clue to the pathway(s) downstream of CRBN and thalidomide, the present inventors analyzed well-known key molecules in fin development. Sonic hedgehog (Shh) is expressed in the zone of polarizing activity (ZPA) and is responsible for anteroposterior patterning of the limb and fin (Cited Literature 27), whereas Fgf8 is expressed in the apical ectodermal ridge (AER) of the limb and fin and is necessary for outgrowth of the limb and fin along the proximodistal axis. […] Thus, an inhibitor of FGF8 production is a possible downstream target of thalidomide and the CRBN-containing E3 complex.
# (§2) This assay was carried out in accordance with Cited Literature 41. Antisense probe for zcrbn mRNA was directed against the 5′-coding region of 513 bp. Antisense probe for zcul4a was directed against the 3′ untranslated region (3′ UTR) of 590 bp. Probes for shh and fgf8 were kindly provided by Dr. Krauss and Dr. Thisse, respectively. To increase permeability of probes, fixed embryos were incubated with PBS containing 0.1% Tween-20 and […] proteinase K for two minutes at room temperature.
# [4] = test system: shh; experiment: as above; type: in vivo; conditions: thalidomide-treated 48-hpf embryos
# Excerpt: as §1, §2
# [5] = target: T2, DDB1 and CRBN (Homo sapiens, UniProt Q96SW2); experiment: Affinity purification from HeLa cell extracts with thalidomide-immobilized beads, competition by free thalidomide; type: binding; conditions: 0.3 mM free thalidomide added to HeLa extracts before the beads
# T2 construct: endogenous in cells; host or cells: HeLa
# Procedure: To purify thalidomide-binding proteins, the present inventors performed affinity purification using FG beads, which are magnetic particles (Cited Literature 9). FR259625, a thalidomide derivative in which a carboxyl group is added was covalently immobilized on the FG beads (FIG. 6), and mixed and incubated with human HeLa cell extracts. […] The 127 and 55 kDa proteins were analyzed by mass spectrometry and identified as DDB1 and CRBN, respectively (Table 1). Identities of these proteins were also confirmed by Western blotting (immunoblotting) (FIG. 1A), and further, these proteins were isolated similarly as thalidomide binding protein from extracts of various cell types (FIG. 7). To determine whether this interaction with thalidomide is direct, the present inventors purified recombinant proteins. CRBN-FLAG, but not DDB1-V5-His, bound to thalidomide-immobilized beads (FIG. 1B).
smiles,measurement,setting,value
O=C1CCC(N2C(=O)c3ccccc3C2=O)C(=O)N1 (centres unmarked) [thalidomide],binding of thalidomide to recombinant CRBN-FLAG,[1],directly binds
same,"size of otic vesicles, of the control size","[2]; 400 μM thalidomide, uninjected embryos",64.5%
same,size of otic vesicles,[2]; 30 hpf,reduced
same,formation of the endoskeletal disc of the pectoral fin,[2]; 75 hpf,inhibited
same,development of pectoral fins and otic vesicles,[2]; embryos in thalidomide-containing media from 2 hpf,disturbed
same,"size of otic vesicles, of the control size","[2]; thalidomide, embryos overexpressing wild-type zCrbn",approximately 66%
same,size of otic vesicles,"[2]; thalidomide, embryos overexpressing zCrbn YW/AA",did not affect
same,fgf8a expression,[3]; thalidomide-treated 48-hpf embryos,reduced or absent; also recorded: severely reduced
same,fgf8a expression,[3]; thalidomide-treated embryos injected with zCrbn YW/AA,restored
same,shh expression,[4],no change
same,yield of DDB1 and CRBN on the beads,[5],reduced significantly

# From US9217743B2, “Screening method utilizing thalidomide-targeting factor” (Tokyo Institute of Technology, priority 2009, dated 2015)
